In patent US12187696B2, “Urea motif containing compounds and derivatives thereof as antibacterial drugs” (Technische Universität München, priority 2016, dated 2025):
Converted amounts (≈) assume the structure as drawn. “Also recorded” adds a separate entry of the source.

Columns and labels:
Bacillus subtilis = assay: Minimal inhibitory concentration (MIC) assay; type: cell-based; conditions: LB medium
[1] = test system: Staphylococcus aureus Bk95395; assay: Minimal inhibitory concentration (MIC) assay; type: cell-based; conditions: Staphylococcus aureus Bk95395 (clinical isolate); B medium
[2] = test system: Staphylococcus aureus VA412350; assay: Minimal inhibitory concentration (MIC) assay; type: cell-based; conditions: Staphylococcus aureus VA412350 (clinical isolate); B medium
S. aureus NCTC 8325 = type: cell-based
S. aureus Mu50 = assay: Minimal inhibitory concentration (MIC) assay; type: cell-based; conditions: Staphylococcus aureus, B medium
[3] = test system: Enterobacter cloacae subsp. Cloacae; assay: Minimal inhibitory concentration (MIC) assay; type: cell-based; conditions: B medium
[4] = test system: Staphylococcus aureus IS050678; assay: Minimal inhibitory concentration (MIC) assay; type: cell-based; conditions: Staphylococcus aureus IS050678 (clinical isolate); B medium
[5] = test system: Staphylococcus aureus VA402525; assay: Minimal inhibitory concentration (MIC) assay; type: cell-based; conditions: Staphylococcus aureus VA402525 (clinical isolate); B medium
[6] = test system: Staphylococcus aureus Bk97296; assay: Minimal inhibitory concentration (MIC) assay; type: cell-based; conditions: Staphylococcus aureus Bk97296 (clinical isolate); B medium
[7] = test system: Mycobacterium tuberculosis H37Rv; assay: Minimal inhibitory concentration (MIC) assay; type: cell-based; conditions: 7H9 medium
[8] = test system: Staphylococcus aureus VA402923; assay: Minimal inhibitory concentration (MIC) assay; type: cell-based; conditions: Staphylococcus aureus VA402923 (clinical isolate); B medium
Acinetobacter baumannii = assay: Minimal inhibitory concentration (MIC) assay; type: cell-based; conditions: B medium
Plasma stability assay = type: in vitro ADME, mouse; conditions: 10 μM, 37° C., up to 6 h (360 min), LC-MS
Procedure: The in vitro stability was tested by a LC-MS based method. Mouse plasma was purchased from biowest (mouse plasma w/lithium heparin, sterile filtered S2162-010) and used as a 1:1 dilution with potassium phosphate buffer (0.1 M, pH 7.4). Final assay concentration of DMSO from compound stocks was 1%. AV1, a β-lactone with known low plasma stability, was used as positive control at a concentration of 50 μM. The compound stability test in plasma was initiated by the addition of 10 μM compound of interest (50 μM in the case of AV1) to 250 μL of diluted mouse plasma at 37° C. Directly after compound addition the reaction mixture was shortly mixed by vortexing and the first sample of 25 μL was withdrawn (time point 0 min). Every sample was quenched immediately by the addition 30 μL of pre-chilled acetonitrile. The reaction mixture was incubated at 37° C. with gentle shaking at 600 rpm. At certain time points (5, 10, 20, 30, 60, 120, 240, 360 min) additional samples (25 μL) were taken for every test compound, quenched as described and stored at −20° C. […] Quantitative LC-MS analysis was performed by LCQ-Fleet Ion Trap Mass Spectrometer equipped with an APCI ion source and a DionexHPLC system using a Waters Xbridge BEH130 C18 column (5 μM 4.6×100 mm). […] Plasma stability was determined in three independent experiments.

[9] = test system: Staphylococcus aureus USA300; assay: Minimal inhibitory concentration (MIC) assay; type: cell-based; conditions: B medium
[10] = biological target: T1, Signal peptidase IB enzyme (SpsB) (Staphylococcus aureus, UniProt P0A070); assay: SpsB FRET peptidase assay with membrane fraction; conditions: for activity of SpsB: 100 μM compound, SpsB-containing membrane fraction of S. aureus, DMSO treated control 1.8 A·U/s; for SpsB peptidase activity (in words): FRET assay, 100 μM, compared to DMSO treated control
T1 sequence (P0A070 1-191): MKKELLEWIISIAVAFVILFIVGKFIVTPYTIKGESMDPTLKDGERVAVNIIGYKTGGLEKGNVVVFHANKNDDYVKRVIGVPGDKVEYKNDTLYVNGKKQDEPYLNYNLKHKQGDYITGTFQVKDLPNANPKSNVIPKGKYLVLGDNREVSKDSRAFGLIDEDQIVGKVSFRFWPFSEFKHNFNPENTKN

[11] = test system: Staphylococcus aureus VA418879; assay: Minimal inhibitory concentration (MIC) assay; type: cell-based; conditions: Staphylococcus aureus VA418879 (clinical isolate); B medium
[12] = test system: Staphylococcus aureus DSM18827; assay: Minimal inhibitory concentration (MIC) assay; type: cell-based; conditions: B medium
Pseudomonas aeruginosa = assay: Minimal inhibitory concentration (MIC) assay; type: cell-based; conditions: B medium
[13] = test system: S. aureus NCTC 8325 persister cells; assay: Persister cell assay II; type: cell-based; conditions: TSB, with or without 30 μg/mL oxacillin; 20 h or 70 h; 2.4 μM PK/X17-1-150 or PK/X17-4-011, 24 μM sorafenib or PK/X17-2-011, 5 μg/mL ciprofloxacin
Procedure: Persister cell assay II. Tryptic soy broth (50 mL in 250 mL culture flasks) was inoculated 1:1000 with overnight cultures of NCTC 8325 and grown at 37° C. and 200 rpm until an OD600 of 4 was reached or overnight (ON). Serial dilution were prepared and plated to determine the cell numbers in the inoculum. […]. […] After 20 h (A) or 70 h (B) of treatment, cells were harvested, washed two times with PBS (10000×g, 3 min), serially diluted and plated on agar plates for determination of surviving cell numbers.

Enterobacter aerogenes = assay: Minimal inhibitory concentration (MIC) assay; type: cell-based; conditions: Klebsiella aerogenes, B medium
[14] = test system: Staphylococcus aureus VA409044; assay: Minimal inhibitory concentration (MIC) assay; type: cell-based; conditions: Staphylococcus aureus VA409044 (clinical isolate); B medium
[15] = test system: S. aureus NCTC 8325 persister cells; assay: Persister cell assay I; type: cell-based; conditions: gentamicin-selected persisters in PBS; 70 h; 2.4 μM PK/X17-1-150, 24 μM sorafenib, 5 μg/mL ciprofloxacin

For O=C(Nc1ccc2c(c1)OC(F)(F)O2)Nc1ccc(Cl)c(C(F)(F)F)c1 [Example 4, 1-(4-Chloro-3-(trifluoromethyl)phenyl)-3-(2,2-difluorobenzo[d][1,3]dioxol-5-yl)urea], the MIC (Bacillus subtilis) was 1 µM (≈ 0.395 µg/mL), the MIC [1] was 0.3 µM (≈ 0.118 µg/mL) and the MIC [2] was 0.3 µM (≈ 0.118 µg/mL). The “resistance development on serial passaging” value (S. aureus NCTC 8325; S. aureus NCTC 8325, subinhibitory levels, 27 days, listed as PK/X17-1-150) was “did not induce resistance; also recorded: no resistant development”, the “activity against S. aureus that developed resistance against sorafenib” value (S. aureus NCTC 8325; preliminary results) was “still active” and the MIC (S. aureus Mu50) was 0.3 µM (≈ 0.118 µg/mL). The MIC [3] was greater than 100 µM, the MIC [4] was 0.3 µM (≈ 0.118 µg/mL) and the MIC [5] was 0.3 µM (≈ 0.118 µg/mL). The MIC [6] was 0.3 µM (≈ 0.118 µg/mL), the MIC [7] was 2 µM (≈ 0.789 µg/mL) and the MIC [8] was 0.3 µM (≈ 0.118 µg/mL). The MIC (Acinetobacter baumannii) was 10 µM (≈ 3.95 µg/mL), the “stability in mouse plasma” value (Plasma stability assay) was “excellent stability in plasma for several hours” and the MIC [9] was 0.3 µM (≈ 0.118 µg/mL). For the same molecule, the “activity of SpsB” value [10] was 4.3 A·U/s, the “SpsB peptidase activity (in words)” value ([10]; listed as PK/X17-1-150) was “increased SpsB peptidase activity; also recorded: stimulates peptidase activity” and the MIC [11] was 0.3 µM (≈ 0.118 µg/mL). The MIC [12] was 0.3 µM (≈ 0.118 µg/mL), the MIC (Pseudomonas aeruginosa) was greater than 100 µM and the “viable persister cells (CFU/mL) vs DMSO control” value [13] was “significant reduction of viable cells”. The MIC (Enterobacter aerogenes) was greater than 100 µM, the MIC [14] was 0.3 µM (≈ 0.118 µg/mL) and the “viable persister cells (CFU/mL) vs DMSO control” value [15] was “significant reduction of viable cells”.

For CNC(=O)c1cc(Oc2ccc(NC(=O)Nc3ccc(Cl)c(C(F)(F)F)c3)cc2)ccn1 [Sorafenib, reference compound], the MIC (Bacillus subtilis) was 5 µM (≈ 2.32 µg/mL), the MIC [1] was 5 µM (≈ 2.32 µg/mL) and the MIC [2] was 5 µM (≈ 2.32 µg/mL). The “first signs of lower sensitivity” value (S. aureus NCTC 8325; serial passaging of S. aureus) was no more than 5 days, the “increase of minimal inhibitory concentration (factor)” value (S. aureus NCTC 8325; serial passaging, within the first 10 days) was 40 and the MIC (S. aureus Mu50) was 3 µM (≈ 1.39 µg/mL). It also gave an MIC [3] greater than 100 µM, an MIC [4] of 5 µM (≈ 2.32 µg/mL) and an MIC [5] of 5 µM (≈ 2.32 µg/mL). It also gave an MIC [6] of 5 µM (≈ 2.32 µg/mL), an MIC [7] of 25 µM (≈ 11.6 µg/mL) and an MIC [8] of 5 µM (≈ 2.32 µg/mL). The MIC (Acinetobacter baumannii) was greater than 100 µM, the “stability in mouse plasma” value (Plasma stability assay) was “excellent stability in plasma for several hours” and the MIC [9] was 3 µM (≈ 1.39 µg/mL). The “activity of SpsB” value [10] was 2.6 A·U/s, the “SpsB peptidase activity (in words)” value [10] was “increased SpsB peptidase activity; also recorded: stimulates peptidase activity” and the MIC [11] was 5 µM (≈ 2.32 µg/mL). The MIC [12] was 3 µM (≈ 1.39 µg/mL), the MIC (Pseudomonas aeruginosa) was greater than 100 µM and the “viable persister cells (CFU/mL) vs DMSO control” value [13] was “significant reduction of viable cells”. For the same molecule, the MIC (Enterobacter aerogenes) was greater than 100 µM, the MIC [14] was 3 µM (≈ 1.39 µg/mL) and the “viable persister cells (CFU/mL) vs DMSO control” value [15] was “significant reduction of viable cells”.
